Like-named read-outs stand apart in the source and are kept apart here.

What all share (assay type): in vivo
One assay deals with Viola tricolor (VIOTR). Briefly: Post-emergence action against weeds, greenhouse pot test, Viola tricolor. To be noted: Viola tricolor, post-emergence, read-out: % activity found; for inhibition at 12 g/ha: 12 g of ai/ha. Here is the method:
(§1) Seeds or rhizome pieces of mono- and dicotyledonous harmful and useful plants were placed in peat pots (diameter 4 cm) filled with sandy loam and then covered with soil. The pots were kept in a greenhouse under optimum conditions. In addition, harmful plants encountered in paddy rice cultivation were cultivated in pots with a water level 2 cm above the soil surface.
(§2) About three weeks after the start of the cultivation, the test plants were treated at the 2- to 3-leaf stage. The herbicides, formulated as powder or liquid concentrates, were, either alone or in the combinations according to the invention, sprayed in various dosages on to the green parts of the plants using an application rate of 600 l of water/ha (converted). For further cultivation of the plants, the pots were then again kept under optimum conditions in a greenhouse.
(§3) The visual scoring of the herbicidal effects was carried out in intervals up to 21 days after the treatment. Scoring was carried out in percent in comparison to the untreated control plants. 0%=no herbicidal activity, 100%=complete herbicidal activity=complete kill.
(§4) The percentages from the treatments with the herbicides alone (=individual application) and with the combinations according to the invention (=mixtures) were employed to calculate interactions using the method of Colby. When the observed efficacies of the mixtures exceed the formal sum of the values of the tests with individual applications, they also exceed the expected value according to Colby, which is calculated using the formula below (cf. S. R. Colby; in Weeds 15 (1967) pp. 20 to 22):
(§5) Here: • A, B=activity of components A and B in percent at a dosage of a and b g of ai/ha (=gramm of active substance per hectare), respectively. • E=expected value in % at a dosage of a+b g of ai/ha.
(§6) The combinations according to the invention of herbicides from group (A) with herbicides from group (B) were tested on a broad spectrum of important harmful plants (weed grasses, broad-leaved weeds/Cyperaceae) and useful plants: Triticum aestivum (TRZAS), Stellaria media (STEME), Lolium multiflorum (LOLMU), Veronica persica (VERPE), Alopecurus myosuroides (ALOMY), Matricaria inodora (MATIN), Brassica napus (BRSNW), Viola tricolor (VIOTR), Avena fatua (AVEFA), Amaranthus retroflexus (AMARE), Zea mays (ZEAMX), Pharbitis purpurea (PHBPU), Setaria viridis (SETVI), Fallopia (ex Polygonum) convolvulus (POLCO), Echinochloa crus-gaffi (ECHCG), Abuthilon theophrasti (ABUTH), Cyperus esculentus (CYPES), Oryza sativa (ORYSA).
(§7) Of particular interest are the results shown in the tables (Tab.) below, where the following key is used: • (1) EPPO code (former Bayer code) for the treated plant (see above) • (2) Time of scoring: DAT (days after treatment) • (3) Component A tested (identifying number) • (4) Component B tested (identifying number) • (5) Dosage component A [g of ai/ha] • (6) Dosage component B [g of ai/ha] • (7) % activity found • (8) E value (calculated according to Colby; see above) • (9) Comments: “SYNERGY”=synergistic interaction (E value <% activity found); “SAFENING”=safener action on useful plant (E value >% activity found)

The subject of assay [1] is Triticum aestivum (TRZAS). Briefly: Post-emergence action against weeds, greenhouse pot test, Triticum aestivum. To be noted: 504 h, 21 DAT, read-out: % activity found. The procedure:
as §1, §2, §3, §4
(§8) Here: • A, B=activity of components A and B in percent at a dosage of a and b g of ai/ha (=gramm of active substance per hectare), respectively. • E=expected value in % at a dosage of a+b g of ai/ha. […]

For assay [2], the system named is Matricaria inodora (MATIN). Description: Post-emergence action against weeds, greenhouse pot test, Matricaria inodora. The following applies: Tripleurospermum inodorum, post-emergence, read-out: % activity found; for inhibition at 36 g/ha: 36 g of ai/ha. The procedure:
as §1, §2, §3, §4, §5

Assay [3] has as its system Fallopia (ex Polygonum) convolvulus (POLCO). Briefly: Post-emergence action against weeds, greenhouse pot test, Fallopia convolvulus. The following applies: Fallopia convolvulus, post-emergence, 504 h, 21 DAT, read-out: % activity found. Here is the method:
as §1, §2, §3, §4, §5, §6, §7

A further assay deals with Setaria viridis (SETVI). Briefly: Post-emergence action against weeds, greenhouse pot test, Setaria viridis. To be noted: 504 h, 21 DAT, read-out: % activity found. Here is the method:
as §1, §2, §3, §4, §8

Assay [4] concerns Pharbitis purpurea (PHBPU). Description: Post-emergence action against weeds, greenhouse pot test, Pharbitis purpurea. The following applies: Ipomoea purpurea, read-out: % activity found; for inhibition at 12 g/ha: 12 g of ai/ha. The procedure: as §1, §2, §3, §4, §5, §6, §7
A further assay concerns Veronica persica (VERPE). Briefly: Post-emergence action against weeds, greenhouse pot test, Veronica persica. The following applies: read-out: % activity found; for inhibition at 12 g/ha: 12 g of ai/ha; for inhibition at 36 g/ha: 36 g of ai/ha. Here is the method: as §1, §2, §3, §4, §5, §6, §7
Assay [5] has as its system Lolium multiflorum (LOLMU). Description: Post-emergence action against weeds, greenhouse pot test, Lolium multiflorum. The following applies: 12 g of ai/ha, read-out: % activity found. The procedure:
as §1, §2, §3, §4, §5, §6, §7

The test system of assay [6] is Amaranthus retroflexus (AMARE). Briefly: Post-emergence action against weeds, greenhouse pot test, Amaranthus retroflexus. The following applies: read-out: % activity found; for inhibition at 12 g/ha: 12 g of ai/ha; for inhibition at 36 g/ha: 36 g of ai/ha. The procedure:
as §1, §2, §3, §4, §5, §6, §7

Another assay concerns Oryza sativa (ORYSA). Briefly: Post-emergence action against weeds, greenhouse pot test, Oryza sativa. The following applies: 240 h, 10 DAT, read-out: % activity found. The procedure:
as §1
(§9) About three weeks after the start of the cultivation, the test plants were treated at the 2- to 3-leaf stage. The herbicides, formulated as powder or liquid concentrates, were, either alone or in the combinations according to the invention, sprayed in various dosages on to the green parts of the plants using an application rate of 600 l of water/ha (converted). For further cultivation of the plants, the pots were then again kept under optimum conditions in a greenhouse. […]
(§10) The percentages from the treatments with the herbicides alone (=individual application) and with the combinations according to the invention (=mixtures) were employed to calculate interactions using the method of Colby. When the observed efficacies of the mixtures exceed the formal sum of the values of the tests with individual applications, they also exceed the expected value according to Colby, which is calculated using the formula below (cf. S. R. Colby; in Weeds 15 (1967) pp. 20 to 22): […]

A further assay deals with Avena fatua (AVEFA). Briefly: Post-emergence action against weeds, greenhouse pot test, Avena fatua. The following applies: read-out: % activity found; for inhibition at 100 g/ha: 100 g of ai/ha. Here is the method:
as §1, §2, §3, §4, §8, §7

Assay [7] has as its system Cyperus esculentus (CYPES). Description: Post-emergence action against weeds, greenhouse pot test, Cyperus esculentus. The following applies: Cyperus esculentus, post-emergence, read-out: % activity found; for inhibition at 12 g/ha: 12 g of ai/ha. Here is the method:
as §1, §2, §3, §4, §5

The next assay concerns Zea mays (ZEAMX). Description: Post-emergence action against weeds, greenhouse pot test, Zea mays. The following applies: Zea mays, post-emergence, read-out: % activity found; for inhibition at 12 g/ha: 12 g of ai/ha; for inhibition at 36 g/ha: 36 g of ai/ha. The procedure: as §1, §2, §3, §4, §5, §6, §7
Assay [8] concerns Alopecurus myosuroides (ALOMY). Description: Post-emergence action against weeds, greenhouse pot test, Alopecurus myosuroides. The following applies: 504 h, 21 DAT, 100 g of ai/ha, read-out: % activity found. Here is the method: as §1, §9, §10

Regarding `Cc1ccccc1CO[C@@H]1C[C@@]2(C(C)C)CC[C@]1(C)O2` (racemic) [B-24, exo-(±)-1-methyl-4-(1-methylethyl)-2-[(2-methylphenyl)methoxy]-7-oxabicyclo[2.2.1]heptane], the inhibition at 12 g/ha came to 0% in the assay with Viola tricolor (VIOTR) (240 h, 10 DAT); 0% in the assay with Viola tricolor (VIOTR) (504 h, 21 DAT); 0% in [1] (12 g of ai/ha); 0% in assay [2] (504 h, 21 DAT, 12 g of ai/ha); 0% in assay [3] (12 g of ai/ha); 30% in the assay on Setaria viridis (SETVI) (12 g of ai/ha). The inhibition at 12 g/ha in assay [4] (240 h, 10 DAT) worked out at 0%; in assay [4] (504 h, 21 DAT), 0%; in the assay with Veronica persica (VERPE) (240 h, 10 DAT), 0%; in the assay on Veronica persica (VERPE) (504 h, 21 DAT), 0%; in assay [5] (240 h, 10 DAT) it was 40%; in assay [5] (504 h, 21 DAT), 20%. The inhibition at 12 g/ha in assay [6] (240 h, 10 DAT) stood at 0%; in [6] (504 h, 21 DAT), 0%; with Oryza sativa (ORYSA) (12 g of ai/ha), 0%; in the assay with Avena fatua (AVEFA) (504 h, 21 DAT, 12 g of ai/ha) it was 0%; in assay [7] (240 h, 10 DAT), 0%; in [7] (504 h, 21 DAT) it was 0%. Besides, the inhibition at 12 g/ha in the assay with Zea mays (ZEAMX) (240 h, 10 DAT) was determined as 0%; in the assay with Zea mays (ZEAMX) (504 h, 21 DAT) it was 0%. The inhibition at 36 g/ha was found to be 0% with Viola tricolor (VIOTR) (240 h, 10 DAT, 36 g of ai/ha); 10% in assay [1] (36 g of ai/ha); 0% in assay [2] (240 h, 10 DAT); 0% in assay [2] (504 h, 21 DAT); 0% in assay [3] (36 g of ai/ha); 50% with Setaria viridis (SETVI) (36 g of ai/ha). Also, the inhibition at 36 g/ha came out at 0% in assay [4] (504 h, 21 DAT, 36 g of ai/ha); 0% with Veronica persica (VERPE) (240 h, 10 DAT); 0% in the assay with Veronica persica (VERPE) (504 h, 21 DAT); 0% in assay [6] (240 h, 10 DAT); 0% in assay [6] (504 h, 21 DAT); 20% with Oryza sativa (ORYSA) (36 g of ai/ha). The inhibition at 36 g/ha was found to be 20% in assay [7] (504 h, 21 DAT, 36 g of ai/ha); 20% in the assay on Zea mays (ZEAMX) (240 h, 10 DAT); 0% with Zea mays (ZEAMX) (504 h, 21 DAT).

Regarding `CC1(C)CON(Cc2ccccc2Cl)C1=O` [B-26, 2-[(2-chlorophenyl)methyl]-4,4-dimethyl-3-isoxazolidinone], the inhibition at 300 g/ha with Viola tricolor (VIOTR) (240 h, 10 DAT, 300 g of ai/ha) was found to be 50%; in [4] (504 h, 21 DAT, 300 g of ai/ha), 0%; in the assay on Avena fatua (AVEFA) (504 h, 21 DAT, 300 g of ai/ha), 30%; in assay [7] (504 h, 21 DAT, 300 g of ai/ha), 0%; in the assay on Zea mays (ZEAMX) (504 h, 21 DAT, 300 g of ai/ha) it was 30%. The inhibition at 100 g/ha in assay [2] (10/21 DAT, 100 g of ai/ha) is 40%; in [4] (504 h, 21 DAT, 100 g of ai/ha), 0%; in assay [8], 0%; with Avena fatua (AVEFA) (240 h, 10 DAT), 10%; in the assay on Avena fatua (AVEFA) (504 h, 21 DAT), 10%; in assay [7] (504 h, 21 DAT, 100 g of ai/ha), 0%. In addition, the inhibition at 100 g/ha with Zea mays (ZEAMX) (504 h, 21 DAT, 100 g of ai/ha) was 0%.

Values taken from US20100234226A1, “HERBICIDE COMBINATION COMPRISING DIMETHOXYTRIAZINYL-SUBSTITUTED DIFLUOROMETHANESULFONYLANILIDES” (BAYER CROPSCIENCE AG, priority 2008, published 2010).
